Laboratory results: patent publication US20110224245A1, “Treatment Of Neurological Disorders Using Huperzine” (President and Fellows of Harvard College, priority 2008, published 2011)

Tests used:
6 Hz seizures [1] = assay: 6 Hz anticonvulsant evaluation in mice, ICV administration; type: in vivo
Source text: Huperzine delivered directly to the central nervous system (e.g., cerebral ventricles, intrathecal space), via direct injection and/or through an apparatus such as a pump or material containing Huperzine, bypasses the systemic effect by minimizing bioavailability of Huperzine in the rest of the body, and potently prevents and treats seizure, pain and/or other neurological conditions.
Results after direct administration to neural tissue using an art-recognized 6-HZ animal model are shown below.
Doses listed as pmol/5 microliter injection volume for ICV. TD50 at 0.5 hrs: 36.15 (9.35-121.74) 1.57+/−0.51.
(§1) Male, 18-25 g CF1 mice and 100-125 g Sprague-Dawley rats (Charles River Laboratories, Wilmington, Mass.) were used as the experimental animals. Animals were pretreated intraperitoneally (i.p.) with increasing doses of HupA and tested at various times after administration for protection against tonic extension (MES test), minimal clonic (s.c. PTZ test), limbic (6 Hz), or secondarily generalized (kindled rat) seizures. Seizure testing was carried out as follows. For the MES and 6 Hz tests, a drop of anesthetic/electrolyte solution (0.5% tetracaine hydrochloride in 0.9% saline) was applied to the eyes of each animal prior to placement of the corneal electrodes. The electrical stimulus in the MES test was 50 mA, 60 Hz, for mice and 150 mA, 60 Hz, for rats, delivered for 0.2 sec (White et al., 2002, In R. H. Levy et al., eds. Antiepileptic Drugs, 5th edition, p. 36-48, Philadelphia: Lippincott Williams & Wilkins). The ability of the test substance to prevent seizures induced by 6 Hz corneal stimulation (32 mA, 3 sec duration) was assessed at various times after i.p. administration of 1 mg/kg HupA For assessment of hippocampal kindling, HupA (1 mg/kg, i.p.) was administered. The ability of the compound to block the expression of hippocampal kindled seizures was evaluated using the rapid hippocampal kindling model (White et al., 2002). Animals not displaying secondarily generalize seizures were considered protected.

[2] = test system: maximal electroshock seizure (MES); assay: Maximal Electroshock (MES) model, mice i.p.; type: in vivo; conditions: 1 mg/kg
Procedure: (§2) Huperzine A was evaluated in the Maximal Electroshock (MES) and Subcutaneous Metrazol (pentylenetetrazol; SCMET) models of generalized tonic-clonic and myoclonic seizures, respectively in mice and rats.
The maximal electroshock (MES) model is an art recognized test, useful to investigate the efficacy of therapeutic agents against grand mal seizures. Maximal seizures were induced by the application of electrical current to the brain via corneal electrodes. The stimulus parameters for mice were 50 mA in a pulse of 60 Hz for 200 ms. The animals were given the huperzine dissolved in methyl cellulose and spasm inhibition was recorded as a measure of anticonvulsant activity.
Huperzine A was either administered in a soluble form (SOL) or as a suspension (SUS). […]
(§3) Male, 18-25 g CF1 mice and 100-125 g Sprague-Dawley rats (Charles River Laboratories, Wilmington, Mass.) were used as the experimental animals. […] The ability of the test substance to prevent seizures induced by 6 Hz corneal stimulation (32 mA, 3 sec duration) was assessed at various times after i.p. administration of 1 mg/kg HupA For assessment of hippocampal kindling, HupA (1 mg/kg, i.p.) was administered. The ability of the compound to block the expression of hippocampal kindled seizures was evaluated using the rapid hippocampal kindling model (White et al., 2002). […]

[3] = test system: Subcutaneous Metrazol (pentylenetetrazol; SCMET) seizures; assay: Subcutaneous Metrazol (SCMET / scPTZ) model, mice i.p.; type: in vivo; conditions: (MJ) animals displaying myoclonic jerks
Procedure: as §2
(§4) The Subcutaneous Metrazole (SCMET) model is also an art-recognized test for therapeutic agents for epilepsy, and in particular, is useful for investigating petite mal seizures. A Metrazole dose of 85 mg/kg was administered subcutaneously to induce seizures. Huperzine was then administered and the animals observed.
Huperzine A was either administered in a soluble form (SOL) or as a suspension (SUS). […] To produce the suspension, huperzine A was ground to a powder using a mortar and pestle, and the powder mixed with methyl cellulose. This mixture was then sonicated to produce a suspension that was subsequently administered to mice in the weight range of 19.0 to 25.5 g. The data are presented as the number of mice showing an effect (N) from the full number of mice (F) tested. […] At four hours post administration, all three mice were protected (i.e., 100% were protected).
as §3, with “animals. Animals were pretreated intraperitoneally (i.p.) with increasing doses of HupA and tested at various times after administration for protection against tonic extension (MES test), minimal clonic (s.c. PTZ test), limbic (6 Hz), or secondarily generalized (kindled rat) seizures. Seizure testing was carried out as follows.” for “animals.”

[4] = test system: Subcutaneous Metrazol (pentylenetetrazol; SCMET) seizures; assay: Subcutaneous Metrazol (SCMET / scPTZ) model, rats, oral; type: in vivo
Procedure: as §2, §4
Peak anticonvulsant activity was observed one-hour after p.o. administration of 1 mg/kg.

6 Hz seizures [5] = assay: 6 Hz seizure test, mice i.p.; type: in vivo; conditions: for Time to Peak Effect N/F: 6 HZ, 0.83 mg/kg
Procedure: HupA was also evaluated for its ability to modify tonic extension, minimal clonic, limbic seizures in the maximal electroshock seizure (MES), subcutaneous pentylenetetrazol (sc PTZ), and 6 Hz seizure tests following intraperitoneal administration. These three tests are highly predictive of efficacy against human generalized tonic-clonic (MES), generalized myoclonic (sc PTZ), and refractory limbic (6 Hz) seizures, respectively. In addition, it was tested for its ability to prevent the expression of Stage V seizures in the hippocampal kindled rat model of partial epilepsy.
as §1

patients = conditions: published clinical studies; mainly cholinergic (dizziness, nausea, gastrointestinal symptoms, sweating, depressed heart rate); cited from earlier work

**Q.** For `C/C=C1\[C@H]2C=C(C)C[C@]1(N)c1ccc(=O)[nH]c1C2` [Huperzine A], which ED50 (6 Hz seizures [1]; 6 HZ, ICV, 32 mA, 0.5 h) is on record?
**A.** The ED50 was 0.21 pmol/5 microliter injection volume.

**Q.** What about the “N/F (animals active over number tested)” value (6 Hz seizures [1]; ICV, 32 mA, 0.5 h, dose 0.01 (pmol/5 microliter; head prints mg/kg)) of the same molecule?
**A.** The value was 3/8.

**Q.** And the “N/F (animals active over number tested)” value (6 Hz seizures [1]; ICV, 32 mA, 0.5 h, dose 1 (pmol/5 microliter; head prints mg/kg))?
**A.** The value was 5/8.

**Q.** What about the “N/F (animals active over number tested)” value (6 Hz seizures [1]; ICV, 32 mA, 0.5 h, dose 10 (pmol/5 microliter; head prints mg/kg)) of the same molecule?
**A.** Its value is 6/8.

**Q.** What about the “N/F (animals active over number tested)” value (6 Hz seizures [1]; ICV, 32 mA, 0.5 h, dose 100 (pmol/5 microliter; head prints mg/kg)) of the same molecule?
**A.** Its value is 8/8.

**Q.** And the “N/F (animals active over number tested)” value (6 Hz seizures [1]; ICV, 32 mA, 0.5 h, dose 1000 (pmol/5 microliter; head prints mg/kg))?
**A.** Its value is 4/4.

**Q.** What about the “Time to Peak Effect N/F” value (6 Hz seizures [1]; ICV, 32 mA, dose 10 (pmol/5 microliter), 0.25 h) of the same molecule?
**A.** Its value is 2/4.

**Q.** And the “Time to Peak Effect N/F” value (6 Hz seizures [1]; ICV, 32 mA, dose 10 (pmol/5 microliter), 0.5 h)?
**A.** The value was 3/4.

**Q.** And the “Time to Peak Effect N/F” value (6 Hz seizures [1]; ICV, 32 mA, dose 100 (pmol/5 microliter), 0.25 h)?
**A.** The value was 4/4.

**Q.** What about the “Time to Peak Effect N/F” value (6 Hz seizures [1]; ICV, 32 mA, dose 100 (pmol/5 microliter), 0.5 h) of the same molecule?
**A.** Its value is 3/4.

**Q.** What about the “Time to Peak Effect N/F” value (6 Hz seizures [1]; ICV, 32 mA, dose 100 (pmol/5 microliter), 1.0 h) of the same molecule?
**A.** The value was 1/4.

**Q.** What about the “ICV ED50 dose” value (6 Hz seizures [1]; mouse 6-hz model, ICV) of the same molecule?
**A.** The value was 52 pgrams.

**Q.** And the “maximum concentration in the cerebral ventricles after the ICV ED50 dose” value (6 Hz seizures [1]; mouse 6-hz model, ICV ED50 dose, 40 μL)?
**A.** Its value is “approximately 1.3 pgram/μL”.

**Q.** What about the “protection in the mouse MES test (FIG. 1)” value [2] of the same molecule?
**A.** Its value is “time-dependent protection”.

**Q.** What about the “SCMET N/F (mice showing an effect / mice tested)” value ([3]; 1 mg/kg i.p., SOL, 0.5 h) of the same molecule?
**A.** The value was 3/5 (MJ)^1.

**Q.** What about the “SCMET N/F (mice showing an effect / mice tested)” value ([3]; 3 mg/kg i.p., SUS, 0.5 h) of the same molecule?
**A.** The value was 1/1 (MJ).

**Q.** What about the “SCMET N/F (mice showing an effect / mice tested)” value ([3]; 10 mg/kg i.p., SUS, 4.0 h) of the same molecule?
**A.** The value was 1/1 (MJ).

**Q.** And the “time of peak anticonvulsant activity” value ([4]; after p.o. administration of 1 mg/kg)?
**A.** Its value is “one-hour”.

**Q.** And the “time of peak activity post administration” value ([4]; rats, 1 mg/kg oral)?
**A.** The value was “between 30 minutes and two hours”.

**Q.** And the “protection in the mouse 6 Hz test (FIG. 1)” value (6 Hz seizures [5]; 0.8 mg/kg)?
**A.** Its value is “time-dependent protection”.

**Q.** What about the “Time to Peak Effect N/F” value (6 Hz seizures [5]; 0.25 h) of the same molecule?
**A.** Its value is 1/4.

**Q.** And the “Time to Peak Effect N/F” value (6 Hz seizures [5]; 0.5 h)?
**A.** The value was 1/4.

**Q.** And the “Time to Peak Effect N/F” value (6 Hz seizures [5]; 1.0 h)?
**A.** The value was 4/4.

**Q.** And the “Time to Peak Effect N/F” value (6 Hz seizures [5]; 2.0 h)?
**A.** The value was 2/4.

**Q.** And the “Time to Peak Effect N/F” value (6 Hz seizures [5]; 4.0 h)?
**A.** Its value is 0/4.

**Q.** And the “protection against 6 Hz seizures (FIG. 2)” value (6 Hz seizures [5]; mouse, in vivo)?
**A.** The value was “dose-dependent protection”.

**Q.** And the “adverse effects in patients” value (patients)?
**A.** The value was “adverse effects were noted infrequently”.
